# Data as given in paper PMC8456958, “Selective Bacterial Targeting and Infection‐Triggered Release of Antibiotic Colistin Conjugates” (Angewandte Chemie (International Ed. in English), 2021).
# Tested on: E. coli K12
# Type: cell-based, Escherichia coli
# Conditions: for MIC with 10 mU mL^−1 Elastase / MIC with 100 mU mL^−1 Elastase / MIC without Elastase: Table 2, E. coli K12, conservative MIC readouts of at least three independent biological experiments
# Method: Determination of antibacterial activities by broth dilution assay
# Bacterial suspensions at 5-6 x 10^5 CFU (1:1000 dilution of a bacterial suspension of OD600 = 1) in T-medium were incubated in volumes of 200 µl in sterile clear 96-well microtiter plates at 37 °C in a wet chamber with serial dilution of peptide-colistin constructs and controls (32 – 0.016 µM) for 18 h.
# External neutrophil elastase was added at 10 mU/ml or 100 mU/ml to each well at the start of incubation, where indicated. After the incubation, the plate was placed for 5 min on a MTP shaker to generate homogenous bacterial suspensions. OD600 was then determined in a microplate reader. The wells with the lowest compound concentration without growth defined the MICs. […]
# Figure S7. Heat plot of the growth of E. coli K12 and E. coli DSM 1116 in presence of 6. Rows A-D: E. coli K12; Rows E-H: E. coli DSM 1116; A + E colistin; B + F peptide-colistin construct 6; C + G peptide-colistin construct 6 + 10 mU/ml elastase; D + H bacteria without compounds. The numbers below the heatplot depict the concentration of colistin and peptides in µM. Conditions: T medium, incubation 20 h at 37 °C in wet chamber; inoculum: cultures at OD = 1.0 diluted 1:1000 (5-6 x 10^5 CFU/ml). […]
# Figure S10. Heat plot of the growth of E. coli in presence of 48 and 49. Row A: E. coli K12 without added compounds; B colistin B; C peptide-colistin construct 49; D peptide-colistin construct 49 + 10 mU/ml elastase; E ElsaSub-colistin; F 48 with 10 mU elastase; G 4; H 4 with […]. The numbers depict the concentration of colistin and peptides in µM. Conditions: T medium, incubation 17.5 h at 37 °C in wet chamber; inoculum 5-6 x 10^5 CFU/ml. […]
# with elastase 10 mU/ml pos-1-isomer (22) […]
# with elastase 10 mU/ml pos-3-isomer (28) […]
# with elastase 10 mU/ml pos-5-isomer (34) […]
# with elastase 10 mU/ml pos-8-isomer (40) […]
# with elastase 10 mU/ml pos-9-isomer (46)
# Figure S11. Heat plot of the growth of E. coli in presence of positional isomers obtained by total chemical synthesis. Conditions: T medium, incubation for 20 h at 37 °C in wet chamber; inoculum 5-6 x 10^5 CFU/ml. Addition of neutrophil elastase at 10 and 100 mU/ml, as indicated. Concentrations of isomers stated below the heat plot in µg/ml. […]
Molecule,MIC with 10 mU mL^−1 Elastase,MIC with 100 mU mL^−1 Elastase,MIC without Elastase,also measured
4-pentinoyl-ßAla-Ala-Ala-Pro-Val-colistin B (lariat or depsi) [Compound 48],,,,"MIC (E. coli K12, T medium, 17.5 h at 37 °C (Figure S10), text does not say with or without elastase): 16 µM"
CC[C@H](NC(=O)[C@@H]1C[C@@H]2CCCC[C@@H]2N1C(=O)[C@H](CCS(C)(=O)=O)NC(=O)[C@H](Cc1ccc(C(=O)c2ccccc2)cc1)NC(=O)CCc1cn(CCCC[C@@H](NC(=O)CCNC(=O)[C@@H](CCCNC(=N)N)NC(=O)[C@@H](CCCNC(=N)N)NC(=O)[C@@H](CC(N)=O)NC(=O)[C@@H](Cc2ccc(O)cc2)NC(=O)[C@@H](CCC(N)=O)NC(=O)[C@@H](CCSC)NC(=O)[C@@H](CCCNC(=N)N)NC(=O)[C@@H](CCCNC(=N)N)NC(=O)[C@@H](CCCCN)NC(=O)[C@@H](C)NC(=O)[C@@H](CCCNC(=N)N)NC(=O)CNC(=O)[C@H](N)[C@H](C)O)C(N)=O)nn1)C(=O)NCC[C@H](NC(=O)CCCCC(C)C)C(=O)N[C@H](C(=O)N[C@@H](CCN)C(=O)N[C@H]1CCNC(=O)[C@H]([C@@H](C)O)NC(=O)[C@H](CCN)NC(=O)[C@H](CCN)NC(=O)[C@H](CC(C)C)NC(=O)[C@@H](CC(C)C)NC(=O)[C@H](CCN)NC1=O)[C@@H](C)O [Compound 22],0.125 µM,0.063 µM,4 µM,
CC[C@H](NC(=O)[C@@H]1C[C@@H]2CCCC[C@@H]2N1C(=O)[C@H](CCS(C)(=O)=O)NC(=O)[C@H](Cc1ccc(C(=O)c2ccccc2)cc1)NC(=O)CCc1cn(CCCC[C@@H](NC(=O)CCNC(=O)[C@@H](CCCNC(=N)N)NC(=O)[C@@H](CCCNC(=N)N)NC(=O)[C@@H](CC(N)=O)NC(=O)[C@@H](Cc2ccc(O)cc2)NC(=O)[C@@H](CCC(N)=O)NC(=O)[C@@H](CCSC)NC(=O)[C@@H](CCCNC(=N)N)NC(=O)[C@@H](CCCNC(=N)N)NC(=O)[C@@H](CCCCN)NC(=O)[C@@H](C)NC(=O)[C@@H](CCCNC(=N)N)NC(=O)CNC(=O)[C@H](N)[C@H](C)O)C(N)=O)nn1)C(=O)NCC[C@H](NC(=O)[C@@H](NC(=O)[C@H](CCN)NC(=O)CCCCC(C)C)[C@@H](C)O)C(=O)N[C@H]1CCNC(=O)[C@H]([C@@H](C)O)NC(=O)[C@H](CCN)NC(=O)[C@H](CCN)NC(=O)[C@H](CC(C)C)NC(=O)[C@@H](CC(C)C)NC(=O)[C@H](CCN)NC1=O [Compound 28],0.25 µM,0.125 µM,8 µM,
CC[C@H](NC(=O)[C@@H]1C[C@@H]2CCCC[C@@H]2N1C(=O)[C@H](CCS(C)(=O)=O)NC(=O)[C@H](Cc1ccc(C(=O)c2ccccc2)cc1)NC(=O)CCc1cn(CCCC[C@@H](NC(=O)CCNC(=O)[C@@H](CCCNC(=N)N)NC(=O)[C@@H](CCCNC(=N)N)NC(=O)[C@@H](CC(N)=O)NC(=O)[C@@H](Cc2ccc(O)cc2)NC(=O)[C@@H](CCC(N)=O)NC(=O)[C@@H](CCSC)NC(=O)[C@@H](CCCNC(=N)N)NC(=O)[C@@H](CCCNC(=N)N)NC(=O)[C@@H](CCCCN)NC(=O)[C@@H](C)NC(=O)[C@@H](CCCNC(=N)N)NC(=O)CNC(=O)[C@H](N)[C@H](C)O)C(N)=O)nn1)C(=O)NCC[C@@H]1NC(=O)[C@@H](NC(=O)[C@H](CCN)NC(=O)[C@@H](NC(=O)[C@H](CCN)NC(=O)CCCCC(C)C)[C@@H](C)O)CCNC(=O)[C@H]([C@@H](C)O)NC(=O)[C@H](CCN)NC(=O)[C@H](CCN)NC(=O)[C@H](CC(C)C)NC(=O)[C@@H](CC(C)C)NC1=O [Compound 34],4 µM,4 µM,>32 µM,
CC[C@H](NC(=O)[C@@H]1C[C@@H]2CCCC[C@@H]2N1C(=O)[C@H](CCS(C)(=O)=O)NC(=O)[C@H](Cc1ccc(C(=O)c2ccccc2)cc1)NC(=O)CCc1cn(CCCC[C@@H](NC(=O)CCNC(=O)[C@@H](CCCNC(=N)N)NC(=O)[C@@H](CCCNC(=N)N)NC(=O)[C@@H](CC(N)=O)NC(=O)[C@@H](Cc2ccc(O)cc2)NC(=O)[C@@H](CCC(N)=O)NC(=O)[C@@H](CCSC)NC(=O)[C@@H](CCCNC(=N)N)NC(=O)[C@@H](CCCNC(=N)N)NC(=O)[C@@H](CCCCN)NC(=O)[C@@H](C)NC(=O)[C@@H](CCCNC(=N)N)NC(=O)CNC(=O)[C@H](N)[C@H](C)O)C(N)=O)nn1)C(=O)NCC[C@@H]1NC(=O)[C@H](CC(C)C)NC(=O)[C@@H](CC(C)C)NC(=O)[C@H](CCN)NC(=O)[C@@H](NC(=O)[C@H](CCN)NC(=O)[C@@H](NC(=O)[C@H](CCN)NC(=O)CCCCC(C)C)[C@@H](C)O)CCNC(=O)[C@H]([C@@H](C)O)NC(=O)[C@H](CCN)NC1=O [Compound 40],>32 µM,32 µM,>32 µM,
CC[C@H](NC(=O)[C@@H]1C[C@@H]2CCCC[C@@H]2N1C(=O)[C@H](CCS(C)(=O)=O)NC(=O)[C@H](Cc1ccc(C(=O)c2ccccc2)cc1)NC(=O)CCc1cn(CCCC[C@@H](NC(=O)CCNC(=O)[C@@H](CCCNC(=N)N)NC(=O)[C@@H](CCCNC(=N)N)NC(=O)[C@@H](CC(N)=O)NC(=O)[C@@H](Cc2ccc(O)cc2)NC(=O)[C@@H](CCC(N)=O)NC(=O)[C@@H](CCSC)NC(=O)[C@@H](CCCNC(=N)N)NC(=O)[C@@H](CCCNC(=N)N)NC(=O)[C@@H](CCCCN)NC(=O)[C@@H](C)NC(=O)[C@@H](CCCNC(=N)N)NC(=O)CNC(=O)[C@H](N)[C@H](C)O)C(N)=O)nn1)C(=O)NCC[C@@H]1NC(=O)[C@H](CCN)NC(=O)[C@H](CC(C)C)NC(=O)[C@@H](CC(C)C)NC(=O)[C@H](CCN)NC(=O)[C@@H](NC(=O)[C@H](CCN)NC(=O)[C@@H](NC(=O)[C@H](CCN)NC(=O)CCCCC(C)C)[C@@H](C)O)CCNC(=O)[C@H]([C@@H](C)O)NC1=O [Compound 46],32 µM,8 µM,>32 µM,
"(all-D) T-G-R-A-K-R-R-M-Q-Y-N-R-R-ßAla-norleucinamide(1H-1,2,3-triazol-4-yl)propionyl-ßAla-L-Ala-L-Ala-L-Pro-L-Val-colistin B [Compound 49]",,,,"antimicrobial activity (MIC) in the presence of neutrophil elastase (E. coli K12, 10 mU/ml elastase, T medium, 17.5 h at 37 °C (Figure S10)): > 32 µM; antimicrobial activity (MIC) in the absence of neutrophil elastase (E. coli K12, T medium, 17.5 h at 37 °C (Figure S10)): > 32 µM"
"Neutrophil elastase: Neutrophil Elastase (human), affinity purified, USBiological",,,,"antimicrobial activity of neutrophil elastase alone (elastase alone, two strains of E. coli (K12 and DSM 1116)): did not display any antimicrobial activity"
